{"source": "patent US9399626B2", "about": "“2-thiopyrimidinones” (Pfizer Inc., priority 2011, dated 2016)", "note": "Counter-ions that a name gives are not always drawn.", "data": [{"target": "T1, MPO (purified from human polynuclear leukocytes) (Homo sapiens, UniProt P05164)", "T1 construct": "purified from human polynuclear leukocytes; purchased Calbiochem/EMD Biosciences; host or cells: human polynuclear leukocytes (natural source)", "T1 sequence (P05164 279-745 limits assumed)": "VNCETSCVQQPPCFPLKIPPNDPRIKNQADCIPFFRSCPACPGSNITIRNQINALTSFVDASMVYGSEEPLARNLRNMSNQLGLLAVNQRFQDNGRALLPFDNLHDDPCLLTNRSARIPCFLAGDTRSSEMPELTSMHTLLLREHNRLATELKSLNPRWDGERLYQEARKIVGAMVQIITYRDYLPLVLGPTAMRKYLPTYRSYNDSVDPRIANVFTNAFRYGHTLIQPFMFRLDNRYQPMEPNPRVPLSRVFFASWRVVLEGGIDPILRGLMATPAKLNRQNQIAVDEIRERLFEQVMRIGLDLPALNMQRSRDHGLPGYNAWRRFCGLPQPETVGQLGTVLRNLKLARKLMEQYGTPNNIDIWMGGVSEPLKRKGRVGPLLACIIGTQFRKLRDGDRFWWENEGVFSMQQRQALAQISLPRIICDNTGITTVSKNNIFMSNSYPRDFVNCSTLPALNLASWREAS", "T1 sequence (P05164 165-273 limits assumed)": "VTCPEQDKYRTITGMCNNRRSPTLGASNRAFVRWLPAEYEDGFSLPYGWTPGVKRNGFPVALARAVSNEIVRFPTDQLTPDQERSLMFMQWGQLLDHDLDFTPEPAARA", "assay": "MPO Amplex Red Activity Assay", "format": "biochemical", "conditions": "Table 1, 2 μM H2O2, pH 7.4", "summary_of_the_method": "(§1)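 Human leukocyte MPO […] oxidises 30 μM Amplex Red with 2 μM H2O2 in 50 mM NaPi pH 7.4, 150 mM NaCl, 1 mM DTPA, 2% DMSO. Resorufin fluorescence (ex 530/em 580 nm) read every 20 s, minus catalase background. kobs from the first 600 s, corrected for auto-inactivation, fit versus [I] for kinact/KI.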", "values": [{"molecule": "COc1cc(OC)c(-c2cc(=O)[nH]c(=S)n2CC(N)=O)cc1OC", "note": "[Example 124, 2-[4-oxo-2-thioxo-6-(2,4,5-trimethoxyphenyl)-3,4-dihydropyrimidin-1(2H)-yl]acetamide]", "MPO kinact/Ki": "4610 1/s per M"}, {"molecule": "COc1cc(-c2cc(=O)[nH]c(=S)n2CC(N)=O)c(OC)cc1C", "note": "[Example 147, 2-[6-(2,5-dimethoxy-4-methylphenyl)-4-oxo-2-thioxo-3,4-dihydropyrimidin-1(2H)-yl]acetamide]", "MPO kinact/Ki": "6500 1/s per M"}, {"molecule": "COCCn1c(-c2cccc(C)c2)cc(=O)[nH]c1=S", "note": "[Example 283, 1-(2-methoxyethyl)-6-(3-methylphenyl)-2-thioxo-2,3-dihydropyrimidin-4(1H)-one]", "MPO kinact/Ki": "2790 1/s per M"}, {"molecule": "COc1ccc(OC)c(-c2cc(=O)[nH]c(=S)n2CCN=C(N)N)c1", "note": "[Example 121, 2-{2-[6-(2,5-dimethoxyphenyl)-4-oxo-2-thioxo-3,4-dihydropyrimidin-1(2H)-yl]ethyl}guanidine hydrochloride]", "MPO kinact/Ki": "15800 1/s per M"}, {"molecule": "COCCn1c(-c2cccc3sccc23)cc(=O)[nH]c1=S", "note": "[Example 74, 6-(1-benzothien-4-yl)-1-(2-methoxyethyl)-2-thioxo-2,3-dihydropyrimidin-4(1H)-one]", "MPO kinact/Ki": "14400 1/s per M"}, {"molecule": "COc1ncc(C)cc1-c1cc(=O)[nH]c(=S)n1CCO", "note": "[Example 150, 1-(2-hydroxyethyl)-6-(2-methoxy-5-methylpyridin-3-yl)-2-thioxo-2,3-dihydropyrimidin-4(1H)-one]", "MPO kinact/Ki": "8970 1/s per M"}, {"molecule": "COc1cc2ccccc2cc1-c1cc(=O)[nH]c(=S)n1CCN", "note": "[Example 95, 1-(2-aminoethyl)-6-(3-methoxy-2-naphthyl)-2-thioxo-2,3-dihydropyrimidin-4(1H)-one hydrochloride]", "MPO kinact/Ki": "15400 1/s per M"}, {"molecule": "COc1ccc(Cl)cc1-c1cc(=O)[nH]c(=S)n1CCN=C(N)N", "note": "[Example 128, 2-{2-[6-(5-chloro-2-methoxyphenyl)-4-oxo-2-thioxo-3,4-dihydropyrimidin-1(2H)-yl]ethyl} guanidine hydrochloride]", "MPO kinact/Ki": "7680 1/s per M"}, {"molecule": "COc1ccc(-c2cc(=O)[nH]c(=S)n2CC(=O)NC(=N)N)c(OC)c1", "note": "[Example 236, N-[amino(imino)methyl]-2-[6-(2,4-dimethoxyphenyl)-4-oxo-2-thioxo-3,4-dihydropyrimidin-1(2H)-yl]acetamide trifluoroacetate]", "MPO kinact/Ki": "5740 1/s per M"}, {"molecule": "COCCn1c(-c2cnc(N(C)C)cc2OC)cc(=O)[nH]c1=S", "note": "[Example 338, 6-[6-(dimethylamino)-4-methoxypyridin-3-yl]-1-(2-methoxyethyl)-2-thioxo-2,3-dihydropyrimidin-4(1H)-one]", "MPO kinact/Ki": "1280 1/s per M"}, {"molecule": "COc1cc(OC)cc(-c2cc(=O)[nH]c(=S)n2CCO)c1", "note": "[Example 54, 6-(3,5-dimethoxyphenyl)-1-(2-hydroxyethyl)-2-thioxo-2,3-dihydropyrimidin-4(1H)-one]", "MPO kinact/Ki": "7070 1/s per M"}, {"molecule": "COCCn1c(-c2c[nH]c3ncccc23)cc(=O)[nH]c1=S", "note": "[Example 35, 1-(2-methoxyethyl)-6-(1H-pyrrolo[2,3-b]pyridin-3-yl)-2-thioxo-2,3-dihydropyrimidin-4(1H)-one]", "MPO kinact/Ki": "4110 1/s per M"}, {"molecule": "COCCc1ccccc1-c1cc(=O)[nH]c(=S)n1CCO", "note": "[Example 271, 1-(2-hydroxyethyl)-6-[2-(2-methoxyethyl)phenyl]-2-thioxo-2,3-dihydropyrimidin-4(1H)-one]", "MPO kinact/Ki": "2010 1/s per M"}, {"molecule": "COCCn1c(-c2cccc3c2OCCO3)cc(=O)[nH]c1=S", "note": "[Example 80, 6-(2,3-dihydro-1,4-benzodioxin-5-yl)-1-(2-methoxyethyl)-2-thioxo-2,3-dihydropyrimidin-4(1H)-one]", "MPO kinact/Ki": "4130 1/s per M"}, {"molecule": "COc1ccc(-c2cc(=O)[nH]c(=S)n2CCCN)c(OC)c1", "note": "[Example 178, 1-(3-aminopropyl)-6-(2,4-dimethoxyphenyl)-2-thioxo-2,3-dihydropyrimidin-4(1H)-one formate]", "MPO kinact/Ki": "11100 1/s per M"}, {"molecule": "COCCn1c(-c2cncnc2)cc(=O)[nH]c1=S", "note": "[Example 280, 3-(2-methoxyethyl)-2-thioxo-2,3-dihydro-4,5′-bipyrimidin-6(1H)-one]", "MPO kinact/Ki": "430 1/s per M"}, {"molecule": "COc1ccc(-c2cc(=O)[nH]c(=S)n2Cc2cnc(C)cn2)c(OC)c1", "note": "[Example 247, 6-(2,4-dimethoxyphenyl)-1-[(5-methylpyrazin-2-yl)methyl]-2-thioxo-2,3-dihydropyrimidin-4(1H)-one]", "MPO kinact/Ki": "3060 1/s per M"}, {"molecule": "COc1ccc(-c2cc(=O)[nH]c(=S)n2CC(C)O)c(OC)c1", "note": "(stereo not drawn) [Example 179, 6-(2,4-dimethoxyphenyl)-1-(2-hydroxypropyl)-2-thioxo-2,3-dihydropyrimidin-4(1H)-one]", "MPO kinact/Ki": "2790 1/s per M"}, {"molecule": "COCCn1c(-c2cccc(C#N)c2)cc(=O)[nH]c1=S", "note": "[Example 291, 3-[3-(2-methoxyethyl)-6-oxo-2-thioxo-1,2,3,6-tetrahydropyrimidin-4-yl]benzonitrile]", "MPO kinact/Ki": "2450 1/s per M"}, {"molecule": "COc1cc(OC)c(-c2cc(=O)[nH]c(=S)n2CCCN)cc1OC", "note": "[Example 125, 1-(3-aminopropyl)-2-thioxo-6-(2,4,5-trimethoxyphenyl)-2,3-dihydropyrimidin-4(1H)-one hydrochloride]", "MPO kinact/Ki": "10600 1/s per M"}, {"molecule": "COc1ccc(Cl)cc1-c1cc(=O)[nH]c(=S)n1C[C@@H]1CCCN1", "note": "[Example 123, 6-(5-chloro-2-methoxyphenyl)-1-[(2S)-pyrrolidin-2-ylmethyl]-2-thioxo-2,3-dihydropyrimidin-4(1H)-one hydrochloride]", "MPO kinact/Ki": "3780 1/s per M"}, {"molecule": "NC(=O)Cn1c(-c2ccccc2-n2nccn2)cc(=O)[nH]c1=S", "note": "[Example 99, 2-{4-oxo-2-thioxo-6-[2-(2H-1,2,3-triazol-2-yl)phenyl]-3,4-dihydropyrimidin-1(2H)-yl}acetamide]", "MPO kinact/Ki": "2920 1/s per M"}, {"molecule": "COCCn1c(-c2cc(Cl)ccc2OC)cc(=O)[nH]c1=S", "note": "[Example 333, 6-(5-chloro-2-methoxyphenyl)-1-(2-methoxyethyl)-2-thioxo-2,3-dihydropyrimidin-4(1H)-one]", "MPO kinact/Ki": "6100 1/s per M"}, {"molecule": "COc1ccc(-c2cc(=O)[nH]c(=S)n2Cc2ncccn2)c(OC)c1", "note": "[Example 234, 6-(2,4-dimethoxyphenyl)-1-(pyrimidin-2-ylmethyl)-2-thioxo-2,3-dihydropyrimidin-4(1H)-one]", "MPO kinact/Ki": "3060 1/s per M"}, {"molecule": "COCCn1c(-c2ccc3c(c2)OCCO3)cc(=O)[nH]c1=S", "note": "[Example 326, 6-(2,3-dihydro-1,4-benzodioxin-6-yl)-1-(2-methoxyethyl)-2-thioxo-2,3-dihydropyrimidin-4(1H)-one]", "MPO kinact/Ki": "7480 1/s per M"}, {"molecule": "COc1ccc(C)nc1-c1cc(=O)[nH]c(=S)n1CCO", "note": "[Example 22, 1-(2-hydroxyethyl)-6-(3-methoxy-6-methylpyridin-2-yl)-2-thioxo-2,3-dihydropyrimidin-4(1H)-one]", "MPO kinact/Ki": "6340 1/s per M"}, {"molecule": "COCCn1c(-c2cccc(O)c2)cc(=O)[nH]c1=S", "note": "[Example 287]", "MPO kinact/Ki": "2130 1/s per M"}]}, {"target": "T1, MPO (purified from human polynuclear leukocytes)", "assay": "MPO Amplex Red Activity Assay", "format": "biochemical", "conditions": "Table 1A, 2 μM H2O2, pH 7.4", "summary_of_the_method": "as §1", "values": [{"molecule": "NC(=O)Cn1c(-c2cccc3c2OCC3)cc(=O)[nH]c1=S", "note": "[Example 364, 2-[6-(2,3-dihydro-1-benzofuran-7-yl)-4-oxo-2-thioxo-3,4-dihydropyrimidin-1(2H)-yl]acetamide]", "MPO kinact/Ki": "6580 1/s per M"}, {"molecule": "COc1ccc(-c2cc(=O)[nH]c(=S)n2CC(=O)N2CCNCC2)c(OC)c1", "note": "[Example 397, 6-(2,4-dimethoxyphenyl)-1-[2-oxo-2-(piperazin-1-yl)ethyl]-2-thioxo-2,3-dihydropyrimidin-4(1H)-one]", "MPO kinact/Ki": "4050 1/s per M"}, {"molecule": "N=C(N)NCCn1c(-c2cc(Cl)ccc2OCCO)cc(=O)[nH]c1=S", "note": "[Example 448, 1-(2-{6-[5-chloro-2-(2-hydroxyethoxy)phenyl]-4-oxo-2-thioxo-3,4-dihydropyrimidin-1(2H)-yl}ethyl)guanidine]", "MPO kinact/Ki": "6490 1/s per M"}, {"molecule": "NCCNC(=O)Cn1c(-c2ccccc2OCCO)cc(=O)[nH]c1=S", "note": "[Example 428, N-(2-aminoethyl)-2-{6-[2-(2-hydroxyethoxy)phenyl]-4-oxo-2-thioxo-3,4-dihydropyrimidin-1(2H)-yl}acetamide]", "MPO kinact/Ki": "5890 1/s per M"}, {"molecule": "CSc1ccccc1-c1cc(=O)[nH]c(=S)n1CC(N)=O", "note": "[Example 365, 2-{6-[2-(methylsulfanyl)phenyl]-4-oxo-2-thioxo-3,4-dihydropyrimidin-1(2H)yl}acetamide]", "MPO kinact/Ki": "9290 1/s per M"}, {"molecule": "CCNC(=O)Cn1c(-c2ccc(OC)cc2OC)cc(=O)[nH]c1=S", "note": "[Example 434, 2-[6-(2,4-dimethoxyphenyl)-4-oxo-2-thioxo-3,4-dihydropyrimidin-1(2H)-yl]-N-ethylacetamide]", "MPO kinact/Ki": "4070 1/s per M"}, {"molecule": "COc1cccc(-c2cc(=O)[nH]c(=S)n2CC(N)=O)c1OC", "note": "[Example 416, 2-[6-(2,3-dimethoxyphenyl)-4-oxo-2-thioxo-3,4-dihydropyrimidin-1(2H)-yl]acetamide]", "MPO kinact/Ki": "4480 1/s per M"}, {"molecule": "COc1ccc(-c2cc(=O)[nH]c(=S)n2CCNCCN)c(OC)c1", "note": "[Example 381, 1-{2-[(2-aminoethyl)amino]ethyl}-6-(2,4-dimethoxyphenyl)-2-thioxo-2,3-dihydropyrimidin-4(1H)-one]", "MPO kinact/Ki": "1970 1/s per M"}, {"molecule": "NCCNC(=O)Cn1c(-c2cc(Cl)ccc2OCCO)cc(=O)[nH]c1=S", "note": "[Example 424, N-(2-aminoethyl)-2-{6-[5-chloro-2-(2-hydroxyethoxy)phenyl]-4-oxo-2-thioxo-3,4-dihydropyrimidin-1(2H)-yl}acetamide]", "MPO kinact/Ki": "6870 1/s per M"}]}]}
